Laboratory results as given in patent EP4233857A1, “BIOACTIVE COMPOUNDS OBTAINED FROM CY[…] SP. LEGE 181152” (CIIMAR - Centro Interdisciplinar de Investigação Marinha e …, priority 2022, dated 2023).
“Also recorded” adds a separate entry of the source.

Experiments:
[1] = system: human colorectal carcinoma cell line, HCT 116; experiment: Cytotoxicity on 3D cancer spheroids, cell viability by acid phosphatase assay; format: cell-based
Experimental: The cytotoxicity of the fractions A to H2 was tested against the 3D model of the human colorectal carcinoma cell line, HCT 116. Colorectal cancer has one of the highest incidences among cancer diagnosis and is also one of cancers with the highest mortality rate. Over the years, the 3D cell models have taken over drug screening due to their biologically relevance when compared to the more conventional monolayer model. Three dimensional spheroids are more representative of the microenvironment of an in vivo tumour, with interactions between cells in the different layers - a necrotic core, an intermediate quiescent layer, and a proliferative outer layer.
Cells were seeded in ULA 96 well plates and incubated for 5 days for spheroid formation. After formation, spheroids were exposed to the fractions (25 µg/mL) for 96h. Cell viability was assessed by the acid phosphatase assay. In viable cells these intracellular enzymes hydrolyse […], which can be quantified colorimetrically at 405 nm. The results were expressed as the percentage of cell viability normalized to the solvent control (DMSO). […]

[2] = system: HCT 116 human colon carcinoma cells; experiment: Cytotoxicity on monolayer (2D) cells; format: cell-based; conditions: 2D assay (monolayer)
Experimental: The cytotoxic effect of phormidolide D (3) was tested against HCT 116 human colon carcinoma cells in monolayer (2D) and spheroid models (Figure 11). […] The difference of the IC50 values between the two cell models is commonly reported in the literature. Cancer spheroids tend to be more resistant to treatment than monolayer cells, and thus tend to present higher IC50 values. However, the cytotoxic effects in cancer spheroids are more realistic, because in this culture model, drug diffusion and cell proliferation effects are being tested. The results obtained for compound 3 are very interesting: despite its molecular weight (1064 g/mol) it can still penetrate the tightly packed cells of the outer layer of the spheroid, leading to a decrease in the cell viability in relevant concentrations (Figure 9). […]

[3] = system: panel of 60 human cancer cell lines; conditions: Williamson et al., 2002; cited from earlier work
[4] = system: brine shrimp; conditions: cited from earlier work

Row | Substance | IC50 [1] | IC50 [2] | cytotoxicity against a panel of 60 cancer cells [3] | LD50 [4]
1 | phormidolide D | 13.6 µM | 1.21 µM | – | –
2 | phormidolide A | – | – | noncytotoxic; also recorded: not considered active | 1.5 µM
